Results: patent US9682928B2 (NeuroPro Therapeutics, Inc., priority 2009, dated 2017)
“Also recorded” adds a separate entry of the source.

Molecular target: T1, α5β3γ2 GABAA receptor isoform (Homo sapiens, UniProt P18507+P28472+P31644)
T1 construct: expressed in transfected cells; host or cells: HEK-293T, transient transfection
Experiment: Whole-cell patch clamp, transfected HEK-293T cells
Assay type: cell-based, rat or human
Conditions: 10 μM NTP-2014; 1 μM and 100 μM GABA

T1 sequence (P31644 32-462): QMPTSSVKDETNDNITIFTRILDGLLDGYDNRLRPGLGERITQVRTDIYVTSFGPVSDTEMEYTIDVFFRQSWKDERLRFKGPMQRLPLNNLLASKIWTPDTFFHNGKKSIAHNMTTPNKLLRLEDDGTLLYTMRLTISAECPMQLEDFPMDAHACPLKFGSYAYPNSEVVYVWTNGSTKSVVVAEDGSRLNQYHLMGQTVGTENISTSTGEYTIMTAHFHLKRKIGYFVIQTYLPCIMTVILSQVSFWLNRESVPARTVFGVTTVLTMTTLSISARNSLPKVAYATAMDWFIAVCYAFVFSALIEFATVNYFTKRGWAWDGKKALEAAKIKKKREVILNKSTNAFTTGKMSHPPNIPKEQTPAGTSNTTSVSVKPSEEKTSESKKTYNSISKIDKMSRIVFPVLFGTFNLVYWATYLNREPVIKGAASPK
T1 sequence (P28472 26-473): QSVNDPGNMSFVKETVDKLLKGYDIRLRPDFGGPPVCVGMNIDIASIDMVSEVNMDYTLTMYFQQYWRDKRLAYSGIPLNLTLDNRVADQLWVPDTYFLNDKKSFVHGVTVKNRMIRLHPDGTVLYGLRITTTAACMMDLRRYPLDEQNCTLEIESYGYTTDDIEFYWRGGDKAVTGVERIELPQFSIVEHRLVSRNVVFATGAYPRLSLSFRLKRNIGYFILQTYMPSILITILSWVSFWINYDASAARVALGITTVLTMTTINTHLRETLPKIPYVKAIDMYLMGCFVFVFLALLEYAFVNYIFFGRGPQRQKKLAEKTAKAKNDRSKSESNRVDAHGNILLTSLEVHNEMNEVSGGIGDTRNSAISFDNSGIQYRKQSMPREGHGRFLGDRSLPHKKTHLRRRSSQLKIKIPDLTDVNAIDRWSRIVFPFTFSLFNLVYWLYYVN
T1 sequence (P18507 40-475): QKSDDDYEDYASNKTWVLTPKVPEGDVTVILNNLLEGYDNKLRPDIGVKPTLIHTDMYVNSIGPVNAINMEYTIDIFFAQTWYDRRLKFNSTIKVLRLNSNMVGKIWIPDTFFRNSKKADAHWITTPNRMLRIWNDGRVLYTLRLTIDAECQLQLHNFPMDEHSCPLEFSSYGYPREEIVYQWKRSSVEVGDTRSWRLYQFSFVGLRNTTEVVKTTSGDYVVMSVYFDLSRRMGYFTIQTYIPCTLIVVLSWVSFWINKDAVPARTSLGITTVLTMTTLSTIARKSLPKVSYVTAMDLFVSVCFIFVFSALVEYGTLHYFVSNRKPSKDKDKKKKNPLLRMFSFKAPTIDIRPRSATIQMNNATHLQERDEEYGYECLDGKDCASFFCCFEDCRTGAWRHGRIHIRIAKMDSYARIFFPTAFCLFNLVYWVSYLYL

Q: With `CCCCN(CCCC)c1cc(C(=O)O)cc(S(N)(=O)=O)c1Oc1ccccc1` [NTP-2014, 3-Aminosulfonyl-5-N,N-dibutylamino-4-phenoxybenzoic acid] as the compound, how does the “Effect on current, α5 containing isoform” value read?
A: slowed the decay rate; also recorded: inhibited
